We go through four molecules from patent US20110053835A1, “ANTIMICROBIAL PEPTIDES DERIVED FROM CAP18” (OctoPlus Sciences B.V., priority 2004, published 2011).

In brackets after ≈: the same amount, converted by molar mass. Like-named read-outs stand apart in the source and are kept apart here. Marks after values point to notes of the source that are not given here. Some results are limits rather than exact numbers.

Assay [1] relates to peripheral blood mononuclear cells (PBMC). The assay is described as follows: T cell proliferation ([3H]thymidine incorporation). It is filed as cell-based. The note with it: fraction of positive stimulation indices (positive: >2), 10 μg/ml compound, 5 days. As to the method:
(§1) The compounds prepared according to example 1 were tested for their therapeutically undesirable immunogenic activity by using Elispot, T-cell proliferation, ERK-activation, and neutrophil chemotaxis assays. The Elispot assay is applicable to determine effects of drugs, chemicals or other compounds on cytokine secretion in vitro, thereby providing data on their putative modulatory effects on immune function in vivo. The results of the assay are given as fraction of positive responses to IFN-gamma. […] Cytokines are direct mediators of inflammation and influence the progress and direction of many immunological reactions. Perturbation of the balance in cytokine production is widely recognized as a critical factor in several disease states. This balance is already disturbed in the case of conditions such as otitis media with effusion and sinusitis. T. cell proliferation is also not favorable in this situation, because this will also stimulate the immune response that is already out of control.
(§2) For T cell proliferation, 150,000 peripheral blood mononuclear cells (PBMC) were cultured in the absence or presence of 10 μg/ml of the compounds for 5 days in 96 well round bottom plates (Costar Inc. Cambridge, Mass.) in a final volume of 150 μl IMDM complete. As a positive control, PBMC were cultured in the presence of 25 U/ml recombinant IL-2. During the final 20 hours of culture, PBMC were pulsed with [3H]thymidine (0.5 microCi/well), after which 3H-incorporation was measured by liquid scintillation counting. For detection of the T cell cytokines IFN and IL-10 by Elispot analysis, 1.5×10^6 PBMC were cultured in 0.5 ml IMDM complete in the absence or presence of various concentrations of synthetic peptide. As a positive control PBMC were stimulated by 10 μg/ml poke weed mitogen (PWM). After 48 hours of culture, PBMC were harvested by gently rinsing the wells with warm IMDM to collect non-adherent cells, which were washed in a large volume of IMDM. PBMC were subsequently plated on antibody-precoated ELISA plates and cultured for 5 hours in IMDM supplemented with 2% pooled human AB serum at 37° C. 5% CO2, after which the plates were developed according to the manufacturer's protocol (U-CyTech, Utrecht, The Netherlands), Spots were counted on an Olympus microscope and analyzed with Olympus Micro Image 4.0 software (Paes Nederland, Zoeterwoude, The Netherlands). The final results are expressed as fraction of positive stimulation indices (positive: >2).
(Uptake of a labelled nucleoside into DNA is a usual measure of proliferation.)

Assay [2] deals with LTA. The assay is described as follows: LTA neutralization, whole blood (WB) assay. It counts as cell-based. The following applies: ± SD. As to the method:
(§3) The compounds prepared according to example 1 were tested for their capability to neutralize the bacterial toxin LPS with a limulus amoebocyte lysate (LAL) assay and with a whole blood (WB) assay. LTA neutralization was also measured with a whole blood assay. Peptide LL-37 was used as a positive control. The peptide concentration whereby 50% LPS is neutralized was used as a measure of the peptide's activity. These concentration values were as in table 1. The differences between the compounds within each assay were not statistically significant.

Assay [3] has as its system LPS. Briefly: LPS neutralization, limulus amoebocyte lysate (LAL) assay. The note with it: ± SD. It is filed as biochemical. As to the method: as §3
Assay [4] relates to neutrophils isolated from peripheral blood. The assay is described as follows: Neutrophil chemotaxis (modified Boyden chamber). It counts as cell-based. The note with it: percentage neutrophils on the membrane compared to positive control 10^−8 M FMLP; 90 minutes at 37° C. As to the method: Neutrophils chemotaxis was measured with neutrophils isolated from peripheral blood using Percoll density centrifugation (density: 1.082 g/ml). The cells were resuspended at a concentration of 2.5×10^6 cells/ml in chemotaxis medium (20 mM N-2-hydroxyethylpiperazine-N′-2-ethanesulfonic acid (HEPES buffer) HEPES, 132 mM NaCl, 6 mM KCl, 1.2 mM KH2PO4, 1 mM MgSO4, 5.5 mM glucose, 0.1 mM CaCl2 and 0.5% (wt/vol) human serum albumm [Central Laboratory of the Netherlands Red Cross Blood Transfusion Service (CLB), Amsterdam, The Netherlands] diluted 1:1 with serum-free RPMI. The chemotactic activity of the compounds was assessed using a modified Boyden Camber technique. Briefly, 26 μl stimuli diluted in HEPES buffer was added to the wells of the lower compartment, and 50 μl of neutrophil suspension (2.5×10^6 cells/ml) was added to the upper compartment. The compartments were separated by two filters: a lower filter with a pore size of 0.45 μm (Millipore Products, Bedford, Mass.) and an upper filter with a pore size of 8 μm (Sartorius Filter, San Francisco, Calif.). After incubation for 90minutes at 37° C., the upper filters were removed, fixed in ethanol-butanol (80:20, vol/vol), and stained with Weigert solution. To determine neutrophil chemotactic activity, neutrophils were counted in six random high-power fields (×400), and the percentage neutrophils on the membrane as compared to the positive control (10^−8 M, N-formylmethionyl-leucyl-phenylalanine (FMLP, Sigma) was calculated.

Assay [5] has as its system peripheral blood mononuclear cells (PBMC). The assay is described as follows: γ-IFN Elispot assay. It counts as cell-based. The note with it: fraction of positive stimulation indices (positive: >2), 48 hours of culture. As to the method: as §1, §2
The test system of assay [6] is LPS. The assay is described as follows: LPS neutralization, whole blood (WB) assay. It is filed as cell-based. The following applies: ± SD. As to the method:
as §3

The test system of assay [7] is Escherichia coli ATCC 8739. The following applies: mean of three determinations. As to the method: (§4) The in vitro antibacterial and antifungal activity of P60.4-Ac and LL-37 were determined as the minimum inhibitory concentrations (MIC) by a microdilution susceptibility test in 96-well microtiter plates, according to a modified version of R. Hancock's “Modified MIC method for cationic antimicrobial peptides” [13]. The antibacterial activity was tested on the reference strains Escherichia coli ATCC 8739, Pseudmonas aeruginosa ATCC 9027. The antifungal activity was evaluated on Candida albicans ATCC 10231 and Aspergillus niger ATCC 14406. The antimicrobial activity assay was conducted with different concentrations of P60.4Ac and LL-37 to compare their effects on the bacterial or fungal growth. Antibacterial activity was examined using log-phase cultured bacteria in Trypticase Soy Broth at 37° C. The cultures were diluted with 10 mM Sodium Phosphate buffer pH 7.4 to give approximately 5.0×10^6 CFU/ml. 10 μl of the diluted test strain was transferred to a 96-well plate and 100 μl of the different peptide concentrations was added to each well. The plates were incubated at 37° C. for 24 hours and are then scored for growth by visual inspection on a light box. They are then returned for incubation for a further 24 hours after which time they are re-evaluated for growth. The yeast strain C. albicans was prepared as described above. The filamentous fungi A. niger was used as a spore suspension, cultured on Sabourauds Dextrose Agar plates at 20-25° C. for 6-10 days or until adequate sporulation has occurred. The spores were harvested by scrapping and if necessary the concentration was adjusted to a final concentration of 5×10^6 CFU/ml.

In assay [8] the test system is P. aeruginosa ATCC9027. As to the method: as §4
Assay [9] deals with Candida albicans ATCC 10231. As to the method:
as §4

The test system of assay [10] is Aspergillus niger ATCC 14406. As to the method:
as §4

For “IGKEFKRIVQRIKDFLRNLVPRTE [Compound P60.Ac]”, the T cell proliferation in assay [1] is recorded as 4/8. Moreover, the “Compound concentration for 50% LTA-neutralization, LTA (WB)” value in [2] stood at 2.1 ± 0.1 µg/mL. In assay [3], the “Compound concentration for 50% LPS-neutralization, LPS (LAL)” value worked out at 1.8 ± 0.8 µg/mL. In addition, the “Chemotaxis (%)” value in assay [4] is 61 ± 36%. In addition, the “γ-IFN Elispot” value in assay [5] is given as 3/8. The “Compound concentration for 50% LPS-neutralization, LPS (WB)” value in assay [6] is 2.4 ± 0.5 µg/mL.

Take “IGKEFKRIVERIKRFLRELVRPLR [Compound P60.4]”: in assay [1], the T cell proliferation is reported as 2/8. Besides, in assay [2], the “Compound concentration for 50% LTA-neutralization, LTA (WB)” value amounted to 2.0 ± 1.3 µg/mL. The “Compound concentration for 50% LPS-neutralization, LPS (LAL)” value in assay [3] was determined as 1.7 ± 0.6 µg/mL. Moreover, the “Chemotaxis (%)” value in [4] turned out to be 0 ± 0%. The “γ-IFN Elispot” value in assay [5] is reported as 3/8. Also, in assay [6], the “Compound concentration for 50% LPS-neutralization, LPS (WB)” value was 2.1 ± 0.6 µg/mL.

As for “IGKEFERIVQRIKDFLRNLVPRTE [Compound P60, 24 amino acid peptide derived from CAP18/LL-37]”, in assay [1], the T cell proliferation is reported as 7/8. For the same molecule, the “Compound concentration for 50% LTA-neutralization, LTA (WB)” value in assay [2] worked out at 2.1 ± 0.7 µg/mL. Besides, the “Compound concentration for 50% LPS-neutralization, LPS (LAL)” value in assay [3] amounted to 1.5 ± 0.5 µg/mL. The “Chemotaxis (%)” value in [4] was 76 ± 39%. In assay [5], the “γ-IFN Elispot” value was 1/8. The “Compound concentration for 50% LPS-neutralization, LPS (WB)” value in assay [6] was found to be 1.4 ± 0.1 µg/mL.

As to `CC[C@H](C)[C@H](NC(=O)[C@H](CCCCN)NC(=O)[C@H](CCC(=O)O)NC(=O)[C@H](CCCCN)NC(=O)[C@H](CO)NC(=O)[C@H](CCCCN)NC(=O)[C@H](CCCNC(=N)N)NC(=O)[C@H](Cc1ccccc1)NC(=O)[C@H](Cc1ccccc1)NC(=O)[C@H](CC(=O)O)NC(=O)CNC(=O)[C@H](CC(C)C)NC(=O)[C@@H](N)CC(C)C)C(=O)NCC(=O)N[C@@H](CCCCN)C(=O)N[C@@H](CCC(=O)O)C(=O)N[C@@H](Cc1ccccc1)C(=O)N[C@@H](CCCCN)C(=O)N[C@@H](CCCNC(=N)N)C(=O)N[C@H](C(=O)N[C@H](C(=O)N[C@@H](CCC(N)=O)C(=O)N[C@@H](CCCNC(=N)N)C(=O)N[C@H](C(=O)N[C@@H](CCCCN)C(=O)N[C@@H](CC(=O)O)C(=O)N[C@@H](Cc1ccccc1)C(=O)N[C@@H](CC(C)C)C(=O)N[C@@H](CCCNC(=N)N)C(=O)N[C@@H](CC(N)=O)C(=O)N[C@@H](CC(C)C)C(=O)N[C@H](C(=O)N1CCC[C@H]1C(=O)N[C@@H](CCCNC(=N)N)C(=O)N[C@H](C(=O)N[C@@H](CCC(=O)O)C(=O)N[C@@H](CO)C(=O)O)[C@@H](C)O)C(C)C)[C@@H](C)CC)C(C)C)[C@@H](C)CC` [LL-37, reference compound], the T cell proliferation in assay [1] is 6/8. Moreover, the “Compound concentration for 50% LTA-neutralization, LTA (WB)” value in [2] amounted to 1.6 ± 0.5 µg/mL. In [3], the “Compound concentration for 50% LPS-neutralization, LPS (LAL)” value is 1.3 ± 0.2 µg/mL. In addition, in assay [4], the “Chemotaxis (%)” value worked out at 84 ± 17%. In assay [5], the “γ-IFN Elispot” value is given as 4/8. The “Compound concentration for 50% LPS-neutralization, LPS (WB)” value in [6] was determined as 1.2 ± 0.3 µg/mL. The MIC (commonly the smallest concentration in the dilution series that meets the test's criterion for growth inhibition) in [7] (E. coli ATCC8739, incubation 24 h) is 3 µM (≈ 13.5 µg/mL); in [7] (E. coli ATCC8739, incubation 48 h), 7^b μM; in [8] (P. aeruginosa ATCC9027, incubation 24 h), 3 µM (≈ 13.5 µg/mL); in assay [8] (P. aeruginosa ATCC9027, incubation 48 h) it was 14^d μM; in assay [9] (C. albicans ATCC10231, incubation 24 h), 12 µM (≈ 53.9 µg/mL); in [9] (C. albicans ATCC10231, incubation 48 h), >18^e μM. Further, the MIC in assay [10] (A. niger ATCC14406, incubation 24 h) is over 18 µM; in assay [10] (A. niger ATCC14406, incubation 48 h), >18^e μM. For the same molecule, in assay [10] (up to 18 μM), the “activity against A. niger” value was “no activity”.
